Experimental data from patent US20210402016A1, “RADIOLABELED BOMBESIN-DERIVED COMPOUNDS FOR IN VIVO IMAGING OF GASTRIN-RELEASING PEPTIDE RECEPTOR (GRPR) AND TREATMENT OF GRPR-RELATED DISORDERS” (Provincial Health Services Authority, priority 2018, published 2021).
Read-outs that look alike come from different tables or passages of the source.

Experiment: Biodistribution in PC-3 tumor-bearing NRG mice (Example 1)
Type: in vivo
Conditions: male, NRG (NOD.Cg-Rag1tm1Mom Il2rgtm1Wjl/SzJ), mouse, iv, 1.84 MBq, total radioactivity; for tissue uptake at 0.5 h: 30 min p.i.; for tissue uptake at 1 h: 60 min p.i.; for tissue uptake at 2 h: 120 min p.i.
Experimental: The mice were sacrificed by CO2 inhalation at 30 min, 1 h, and 2 h p.i. Blood was collected by cardiac puncture. Organs/tissues were harvested, rinsed with PBS, blotted dry, and weighed. The activity in tissues was assayed by gamma counter and expressed as the percentage injected dose per gram of tissue (% ID/g).

[1] = PC-3 tumor, read-out: Biodistribution PC-3 Tumor, Mean
[2] = adrenals, read-out: Biodistribution Adrenals, Mean
[3] = bone, read-out: Biodistribution Bone, Mean
[4] = brain, read-out: Biodistribution Brain, Mean
[5] = fat, read-out: Biodistribution Fat, Mean
[6] = intestine, read-out: Biodistribution Intestine, Mean
[7] = kidney, read-out: Biodistribution Kidney, Mean
[8] = liver, read-out: Biodistribution Liver, Mean
[9] = lung, read-out: Biodistribution Lung, Mean
[10] = muscle, read-out: Biodistribution Muscle, Mean
[11] = pancreas, read-out: Biodistribution Pancreas, Mean
[12] = seminal glands, read-out: Biodistribution Seminal glands, Mean
[13] = spleen, read-out: Biodistribution Spleen, Mean
[14] = testes, read-out: Biodistribution Testes, Mean
[15] = whole blood, read-out: Biodistribution Blood, Mean

CC(C)C[C@@H](CN1CCC[C@H]1C(N)=O)NC(=O)[C@H](Cc1c[nH]cn1)NC(=O)CNC(=O)[C@@H](NC(=O)[C@H](C)NC(=O)[C@H](Cc1c[nH]c2ccccc12)NC(=O)[C@H](CCC(N)=O)NC(=O)[C@@H](Cc1ccccc1)NC(=O)COCC(=O)Nc1ccc(CNC(=O)CN2CCN(CC(=O)O)CCN(CC(=O)O)CCN(CC(=O)O)CC2)cc1)C(C)C [^68Ga-ProBOMB1, metal not drawn]
tissue uptake at 0.5 h [1]: 4.62 %ID/g
tissue uptake at 1 h [1]: 8.17 %ID/g
tissue uptake at 2 h [1]: 8.31 %ID/g
tissue uptake at 0.5 h [2]: 0.95 %ID/g
tissue uptake at 1 h [2]: 0.65 %ID/g
tissue uptake at 2 h [2]: 1.23 %ID/g
tissue uptake at 0.5 h [3]: 0.22 %ID/g
tissue uptake at 1 h [3]: 0.26 %ID/g
tissue uptake at 2 h [3]: 0.39 %ID/g
tissue uptake at 0.5 h [4]: 0.02 %ID/g
tissue uptake at 1 h [4]: 0.02 %ID/g
tissue uptake at 2 h [4]: 0.03 %ID/g
tissue uptake at 0.5 h [5]: 0.17 %ID/g
tissue uptake at 1 h [5]: 0.06 %ID/g
tissue uptake at 2 h [5]: 0.07 %ID/g
tissue uptake at 0.5 h [6]: 2.63 %ID/g
tissue uptake at 1 h [6]: 2.47 %ID/g
tissue uptake at 2 h [6]: 1.68 %ID/g
tissue uptake at 0.5 h [7]: 2.83 %ID/g
tissue uptake at 1 h [7]: 1.4 %ID/g
tissue uptake at 2 h [7]: 0.78 %ID/g
tissue uptake at 0.5 h [8]: 1.93 %ID/g
tissue uptake at 1 h [8]: 1.21 %ID/g
tissue uptake at 2 h [8]: 0.75 %ID/g
tissue uptake at 0.5 h [9]: 0.54 %ID/g
tissue uptake at 1 h [9]: 0.35 %ID/g
tissue uptake at 2 h [9]: 0.25 %ID/g
tissue uptake at 0.5 h [10]: 0.36 %ID/g
tissue uptake at 1 h [10]: 0.09 %ID/g
tissue uptake at 2 h [10]: 0.08 %ID/g
tissue uptake at 0.5 h [11]: 10.3 %ID/g
tissue uptake at 1 h [11]: 4.68 %ID/g
tissue uptake at 2 h [11]: 1.55 %ID/g
tissue uptake at 0.5 h [12]: 0.17 %ID/g
tissue uptake at 1 h [12]: 1.08 %ID/g
tissue uptake at 2 h [12]: 0.43 %ID/g
tissue uptake at 0.5 h [13]: 0.5 %ID/g
tissue uptake at 1 h [13]: 0.44 %ID/g
tissue uptake at 2 h [13]: 0.31 %ID/g
tissue uptake at 0.5 h [14]: 0.31 %ID/g
tissue uptake at 1 h [14]: 0.11 %ID/g
tissue uptake at 2 h [14]: 0.09 %ID/g
tissue uptake at 0.5 h [15]: 1.06 %ID/g
tissue uptake at 1 h [15]: 0.4 %ID/g
tissue uptake at 2 h [15]: 0.13 %ID/g
